Assay results published in ChEMBL document CHEMBL4837226, “Discovery of pyrrole derivatives for the treatment of glioblastoma and chronic myeloid leukemia” (Eur J Med Chem, 2021).
Structures can show the parent of a compound that is named as a salt.

What was measured:
Tubulin = assay: Inhibition of tubulin polymerization (unknown origin) assessed as reduction in tubulin assembly preincubated for 15 mins followed by GTP addition by spectrophotometric method; type: protein-complex assay, Homo sapiens
Tubulin (Homo sapiens) [1] = biological target: T1, Tubulin (Homo sapiens) (UniProt P68371+Q9H4B7+P0DPH7+P68366+Q13509+Q71U36+P04350+Q3ZCM7+P07437+P68363+Q9BQE3+Q6PEY2+Q13885+Q9BVA1+Q9BUF5); assay: Inhibition of [3H]Colchicine binding to tubulin (unknown origin) at 5 uM measured after 10 mins by DEAE-Cellulose filter method relative to control; type: protein-complex assay
MCF7 = assay: Cytotoxicity against human MCF7 cells assessed as cell growth inhibition measured after 96 hrs; type: functional, cell-based; details: MCF7, 96 h
Tubulin (Homo sapiens) [2] = biological target: T1, Tubulin (Homo sapiens); assay: Inhibition of [3H]Colchicine binding to tubulin (unknown origin) at 1 uM measured after 10 mins by DEAE-Cellulose filter method relative to control; type: protein-complex assay
KU812 cell line = assay: Cytotoxicity against Bcr-Abl expressing human KU812 cells assessed as cell growth inhibition measured after 48 hrs by MTT assay; type: functional, cell-based; details: KU812, 48 h
KBM5 [3] = assay: Cytotoxicity against Imatinib mesylate sensitive wild-type human KBM5 cells assessed as cell growth inhibition measured after 48 hrs by MTT assay; type: functional, cell-based; details: KBM5, 48 h
KBM5 [4] = assay: Cytotoxicity against imatinib mesylate resistant wild-type human KBM5 cells expressing T315I mutant assessed as cell growth inhibition measured after 48 hrs by MTT assay; type: functional, cell-based; details: KBM5, 48 h
[5] = Cytotoxicity against human U343MG cells assessed as cell growth inhibition by measuring maximum efficacy measured after 72 hrs by MTS colorimetric assay relative to control; type: functional; details: U-343MG
U-87 MG [6] = assay: Cytotoxicity against human U-87MG cells assessed as cell growth inhibition measured after 48 hrs by MTS colorimetric assay; type: functional, cell-based, U-87MG ATCC
SW-620 = assay: Cytotoxicity against human SW-620 cells assessed as cell growth inhibition measured after 48 hrs by XTT dye based assay; type: functional; details: SW-620, 48 h
U-87 MG [7] = assay: Cytotoxicity against human U-87MG cells assessed as cell growth inhibition by measuring maximum efficacy measured after 48 hrs by MTS colorimetric assay relative to control; type: functional, U-87MG ATCC
SW480 = assay: Cytotoxicity against human SW480 cells assessed as cell growth inhibition measured after 48 hrs by XTT dye based assay; type: functional; details: SW480, 48 h
[8] = Cytotoxicity against human U-343MG cells assessed as cell growth inhibition measured after 72 hrs by MTS colorimetric assay; type: functional, cell-based

Row | Compound | IC50 (Tubulin) | inhibition (Tubulin (Homo sapiens) [1]) | inhibition (Tubulin (Homo sapiens) [2]) | IC50 (MCF7) | other results
1 | COc1cc(C(=O)c2cn(-c3ccc(F)cc3)cc2-c2ccccn2)cc(OC)c1OC | 0.82 µM | 44% |  | 0.073 µM | 
2 | COc1cc(C(=O)c2cn(-c3ccc(F)cc3)cc2-c2nccs2)cc(OC)c1OC | 0.78 µM | 69% |  | 0.022 µM | 
3 | COc1cc(C(=O)c2cn(-c3cccc(C)c3)cc2-c2ncco2)cc(OC)c1OC | 0.72 µM | 77% |  | 0.075 µM | 
4 | COc1cc(C(=O)c2cn(-c3ccc(C)cc3)cc2-c2ncco2)cc(OC)c1OC | 0.72 µM | 90% | 45% | 0.042 µM | 
5 | Cc1ccc(NC(=O)c2ccc(CN3CCN(C)CC3)cc2)cc1Nc1nccc(-c2cccnc2)n1 [IMATINIB MESYLATE] |  |  |  |  | IC50 (KU812 cell line): 0.311 µM; IC50 (KBM5 [3]): 0.152 µM; IC50 (KBM5 [4]): 0.311 µM
6 | COc1cc(C(=O)c2cn(-c3ccc(C)cc3)cc2-c2cccnc2)cc(OC)c1OC | 0.64 µM | 92% | 58% | 0.019 µM | 
7 | COc1cc(C(=O)c2cn(-c3cccc(C)c3)cc2-c2cccnc2)cc(OC)c1OC | 0.74 µM | 78% |  | 0.052 µM | 
8 | COc1cc(C(=O)c2cn(-c3cccc(C)c3)cc2-c2ccccn2)cc(OC)c1OC | 0.78 µM | 66% |  | 0.14 µM | 
9 | Cc1ccc(C(=O)Nc2ccc(CN3CCN(C)CC3)c(C(F)(F)F)c2)cc1C#Cc1cnc2cccnn12 [PONATINIB] |  |  |  |  | IC50 (KU812 cell line): 0.0085 µM; IC50 (KBM5 [3]): 0.0102 µM; IC50 (KBM5 [4]): 0.0106 µM
10 | COc1cc(C(=O)c2cn(-c3ccc(F)cc3)cc2-c2ncco2)cc(OC)c1OC | 1.4 µM | 68% |  | 0.093 µM | 
11 | COc1cc(C(=O)c2cn(-c3ccc(F)cc3)cc2-c2ccncc2)cc(OC)c1OC | 0.58 µM | 87% |  | 0.009 µM | IC50 (KU812 cell line): 0.0124 µM; Emax [5]: 75.1%; IC50 (U-87 MG [6]): 0.0391 µM; IC50 (SW-620): 0.0665 µM; Emax (U-87 MG [7]): 56%; IC50 (KBM5 [3]): 0.0122 µM; IC50 (KBM5 [4]): 0.0131 µM; IC50 (SW480): 0.934 µM; IC50 [8]: 0.432 µM
12 | COc1cc(C(=O)c2cn(-c3cccc(C)c3)cc2-c2ccncc2)cc(OC)c1OC | 0.59 µM | 88% |  | 0.065 µM | 

Further lines, with some results ahead:

Row | IC50 (Tubulin) | inhibition (Tubulin (Homo sapiens) [1]) | inhibition (Tubulin (Homo sapiens) [2]) | Compound | IC50 (MCF7) | other results
13 | 0.38 µM | 87% | 71% | COc1cc(C(=O)c2cn(-c3ccc(F)cc3)cc2-c2ccoc2)cc(OC)c1OC | 0.015 µM | 
14 | 0.49 µM | 83% |  | COc1cc(C(=O)c2cn(-c3cccc(C)c3)cc2-c2nccs2)cc(OC)c1OC | 0.02 µM | 
15 | 0.46 µM | 92% | 71% | COc1cc(C(=O)c2cn(-c3ccc(C)cc3)cc2-c2ccco2)cc(OC)c1OC | 0.022 µM | 
16 | 0.56 µM | 80% |  | COc1cc(C(=O)c2cn(-c3cccc(C)c3)cc2-c2ccco2)cc(OC)c1OC | 0.023 µM | 
17 | 0.44 µM | 94% | 70% | COc1cc(C(=O)c2cn(-c3ccc(C)cc3)cc2-c2ccncc2)cc(OC)c1OC | 0.009 µM | 
18 | 0.47 µM | 82% |  | COc1cc(C(=O)c2cn(-c3ccc(F)cc3)cc2-c2ccco2)cc(OC)c1OC | 0.017 µM | 
19 | 0.46 µM | 83% |  | COc1cc(C(=O)c2cn(-c3ccc(C)cc3)cc2-c2ccccn2)cc(OC)c1OC | 0.036 µM | 
20 | 0.52 µM | 74% |  | COc1cc(C(=O)c2cn(-c3cccc(C)c3)cc2-c2ccsc2)cc(OC)c1OC | 0.065 µM | 
21 | 0.56 µM | 80% |  | COc1cc(C(=O)c2cn(-c3ccc(F)cc3)cc2-c2cccnc2)cc(OC)c1OC | 0.039 µM | 
22 | 0.42 µM | 87% | 64% | COc1cc(C(=O)c2cn(-c3cccc(C)c3)cc2-c2ccoc2)cc(OC)c1OC | 0.021 µM | 
23 | 0.55 µM | 76% |  | COc1cc(C(=O)c2cn(-c3ccc(F)cc3)cc2-c2ccsc2)cc(OC)c1OC | 0.015 µM | 
24 | 0.56 µM | 91% | 63% | COc1cc(C(=O)c2cn(-c3ccc(C)cc3)cc2-c2nccs2)cc(OC)c1OC | 0.014 µM | 
25 | 0.47 µM | 95% | 71% | COc1cc(C(=O)c2cn(-c3ccc(C)cc3)cc2-c2ccoc2)cc(OC)c1OC | 0.018 µM | 
